Laboratory results published in US20230184756A1, “BIOMATERIALS” (INSTITUTO DE MEDICINA MOLECULAR JOÃO LOBO ANTUNES, priority 2020, published 2023).
Entries after “also recorded” stand apart in the source; their conditions may differ. One block for each compound: values may come before it. Peptide text beside a SMILES is read from it.

Columns and labels:
[1] = Sample preparation: highest concentration at which the peptide fully dissolves; type: physicochemical; conditions: for highest final concentration that they were able to be fully dissolved: 50 mM Tris-HCl pH 7.5, 5 mM EDTA buffer, room temperature
Method: STVIIE, GNNQQNY, QVQIIE and ISFLIF were prepared at the highest final concentration that they were able to be fully dissolved, respectively 1 mg/mL (STVIIE and GNNQQNY), 0.55 mg/mL (QVQIIE) and 0.1 mg/mL (ISFLIF). For all peptide samples the final incubation buffer was 50 mM Tris-HCl pH 7.5, 5 mM EDTA buffer. Briefly, after weighing the peptide, half of the final volume of H2O ultrapure was added. A short vortex of approximately 1500 rpm and 30 seconds and an ultrasound bath of 280 seconds in water/ice were performed two times. The other half of the final volume was then added, containing 100 mM Tris-HCl pH 7.5, 10 mM EDTA buffer was added, with the peptide samples being therefore in the final incubation buffer. Before incubation, two other cycles of vortex and ultrasound bath were performed. The final peptide solution sample was incubated at room temperature.

[2] = FTIR spectroscopy of secondary structure; type: physicochemical; conditions: followed for 6 hours
Method: Following previous approaches^11,54, peptide samples were applied to the FTIR sample holder at 298.15 K. InfraRed spectra were recorded on a Bruker Tensor 27 infrared spectrophotometer (Bruker Optik GmbH, Ettlingen, Germany) equipped with a Bio-ATR II accessory. The spectrophotometer was continuously purged with dried air. Spectra were recorded at a spectral resolution of 4 cm^−1 and 120 accumulations were performed per measurement. The final spectra were corrected to the baseline (the final incubation buffer) and rescaled in the amide I area (˜1600 to ˜1700 cm^−1).
The formation of aggregates by STVIIE quickly leads the larger elements to deposit from solution. This hinders circular dichroism studies of STVIIE secondary structure. For this reason Fourier transform infra-red (FTIR) spectroscopy was used instead (FIG. 3f-g). The changes in secondary structure content were followed for 6 hours (FIG. 3f). Then, after 6 hours, when amyloid structures are readily visible (FIG. 3a), the experiment was terminated. This time frame is also chosen given that for nanotechnology applications short incubation periods can be necessary and/or preferable. The peptides spectra are consistent with antiparallel β-sheet/aggregated strands (1675-1695 cm^−1) and β-sheet (1625-1640 cm^−1) secondary structure being present (FIG. 3f). […]

[3] = tested on: Human H4 neuroglioma cells; test: LDH release cytotoxicity assay
streptavidin = streptavidin (Streptomyces avidinii, UniProt P22629); test: Binding to free streptavidin by intrinsic tryptophan fluorescence; conditions: 0.8 μM streptavidin
Source text: In terms of secondary structure, evaluated via Fourier Transform Infra Red (FITR) spectroscopy (FIG. 5b), the observations echo the results obtained with (non-biotinylated) STVIIE fibrils (confront with FIG. 3f). Addition, via a PEG9 linker, of a biotin moiety to STVIIE N-terminus results in biotin functionalized STVIIE amyloid fibrils. These fibrils show both the […] and the antiparallel cross β-sheet peaks, being quite similar to the spectra obtained with free (non-biotinylated) STVIIE. Then, the activity of the bioactive molecule (biotin) attached to the fibrils was tested, namely the ability to bind its target bridge element molecule (streptavidin), when free in solution (FIG. 5c-g). […] Briefly, the fluorescence intensity spectra of 0.8 μM streptavidin in solution, treated with buffer (FIG. 5c, leftmost graph), free biotin (FIG. 5c, second graph from the left), non-biotinylated free amyloid peptide (FIG. 5c, third from the left) or biotinylated amyloidogenic peptide fibrils (FIG. 5c, rightmost graph) were compared. A drop on the fluorescence signal (decreased quantum yield) accompanied by peak shifting towards the left (blue shift) indicates streptavidin binding to biotin (FIG. 5c). […] The addition of biotinylated peptide to streptavidin produces a similar blue shift of the fluorescence emission maximum (from 340 to 330 nm), as observed when free biotin is added. […]

[4] = Atomic force microscopy of amyloid fibril formation, morphology and dimensions; type: physicochemical; conditions: AFM, 2 weeks incubation at physiologic pH
Source text: According to experimental procedures at the host lab^57-59, the samples were placed in poly-1-lysine slides and dried using a vacuum chamber. When fully dried, the samples were rinsed with ultra-pure water and dried with a gentle N2 air flux. A NanoWizard II atomic force microscope (JPK Instruments, Berlin, Germany), mounted on the top of an Axiovert 200 inverted optical microscope (Zeiss, Jena, Germany), was used for the microscopic experiments. The AFM head is equipped with a 5.85-μm z-range linearized piezoelectric scanner and an infrared laser. For the acquisition of the different AFM images, it was used a ACL-50 tip (Applied NanoStructures, Inc., California, USA) with a spring constant between 20-95 N/m and a frequency between 145-230 kHz. Amyloid fibrils were acquired in intermittent (air) mode with a setpoint of between 0.4-0.5 V, a line rate of 0.7-0.8 Hz, an IGain of 20-50 Hz and a PGain of 0.001-0.004. The images acquired were treated afterwards with the JPKSPM Data Processing (JPK Instruments, Berlin, Germany).
The most promising amyloidogenic peptide is typically selected. For this purpose, atomic force microscopy (AFM) was employed. AFM is a technique that can be very useful in the acquisition of surface images with high resolution and sensibility, being therefore suitable for such studies of amyloid fibrils and employed in this analysis. […] Regarding GNNQQNY (FIG. 2, first row from the top), at the start of incubation there are no visible structures. At the end of the incubation period tested (2 weeks), heterogeneous structures are visible. […] In contrast, QVQIIE, ISFLIF and STVIIE peptides show amyloid morphologies at the end of the incubation period tested (FIG. 2). […] This is consistent with the β-sheet content of QVQIIE and ISFLIF at the end of the incubation period, measured via Fourier transform infrared spectroscopy (FIG. 12) and binding profile to Congo Red (FIG. 13). […] As for STVIIE, it forms clear fibril structures in the conditions tested. […]

Compound: CC[C@H](C)[C@H](N)C(=O)N[C@@H](CO)C(=O)N[C@@H](Cc1ccccc1)C(=O)N[C@@H](CC(C)C)C(=O)N[C@H](C(=O)N[C@@H](Cc1ccccc1)C(=O)O)[C@@H](C)CC [ISFLIF] (H-ISFLIF-OH; N-terminus and C-terminus assumed)
- solubility in physiological conditions ([1]; physiological conditions): difficult to dissolve at high concentrations

Compound: CC[C@H](C)[C@H](NC(=O)[C@@H](NC(=O)[C@@H](NC(=O)[C@@H](N)CO)[C@@H](C)O)C(C)C)C(=O)N[C@H](C(=O)N[C@@H](CCC(=O)O)C(=O)O)[C@@H](C)CC [STVIIE] (H-STVIIE-OH; N-terminus and C-terminus assumed)
- time for relative ratio of β-sheet secondary structure to stabilize [2]: less than 3 hours
- toxicity to cells (LDH release) ([3]; fibrils at 0.2, 2 and 20 μM, 6 and 24 hours): not toxic; also recorded: not cytotoxic

Compound: O=C(O)CCCC[C@@H]1SC[C@@H]2NC(=O)N[C@@H]21 [biotin, 5-[(3aS,4S,6aR)-2-oxohexahydro-1H-thieno[3,4-d]imidazol-4-yl]pentanoic acid]
- concentration at which the peak shift achieves saturation (streptavidin): ~4 µM
- blue shift of streptavidin fluorescence emission peak maximum (streptavidin; peptide and/or biotin 0 to 13.6 μM): 10 nm

Compound: Aβ(1-42): Amyloid β peptide (involved in Alzheimer's disease), positive control of fibrillization [reference compound]
- morphology at end of incubation [4]: form typical amyloid fibrils

Compound: GNNQQNY [short amyloidogenic peptide]
- highest final concentration that they were able to be fully dissolved [1]: 1 mg/mL
- morphology at end of incubation [4]: not consistent with the well-defined amyloid fibril morphology

- highest final concentration that they were able to be fully dissolved [1]: 0.55 mg/mL
- morphology at end of incubation [4]: amyloid-like gel structure
Compound: QVQIIE

Compound: Triton [reference compound]
- cell death ([3]; 0.2, 2.0 and 20 μM, 6 to 24 hours, buffer control 10-15%): 100%
